# Measured values from patent publication US20090137496A1, “Use of Active Ingredients Containing Hydroxystilbene for Preventing and/or Treating Osteoporosis” (MATSUSHITA ELECTRIC INSUTRIAL CO., LTD., priority 2005, published 2009).
# “Also recorded” adds a separate entry of the source.
# Legend:
# ERα = target: T1, ERα (Homo sapiens, UniProt P03372); assay: ERα activation, luciferase reporter gene in U2OS-ERα osteosarcoma cells; assay type: cell-based; details: U2OS stably transfected with ERα, 24 h
# T1 construct: host or cells: U2OS-ERα (human osteosarcoma), stably transfected, pSG5 vector
# T1 sequence (P03372 1-595): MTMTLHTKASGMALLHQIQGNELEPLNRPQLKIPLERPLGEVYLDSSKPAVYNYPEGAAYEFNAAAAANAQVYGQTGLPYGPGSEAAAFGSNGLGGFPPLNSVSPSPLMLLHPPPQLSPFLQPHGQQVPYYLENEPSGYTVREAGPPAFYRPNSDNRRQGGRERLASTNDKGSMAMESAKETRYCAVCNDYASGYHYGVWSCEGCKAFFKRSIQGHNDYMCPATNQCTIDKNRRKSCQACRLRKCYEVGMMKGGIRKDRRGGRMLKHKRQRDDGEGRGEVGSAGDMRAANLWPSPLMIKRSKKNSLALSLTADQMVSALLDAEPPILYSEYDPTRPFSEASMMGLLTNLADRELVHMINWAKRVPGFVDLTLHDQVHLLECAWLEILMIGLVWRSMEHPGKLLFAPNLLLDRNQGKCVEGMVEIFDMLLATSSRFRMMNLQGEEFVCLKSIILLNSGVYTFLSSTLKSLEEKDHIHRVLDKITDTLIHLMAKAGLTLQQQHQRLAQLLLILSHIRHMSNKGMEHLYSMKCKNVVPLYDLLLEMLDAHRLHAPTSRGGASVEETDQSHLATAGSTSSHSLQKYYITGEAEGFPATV
# Method: U2OS cells are human, epithelially organized osteosarcoma cells originally isolated in 1964 from the tibia of a child by J. Ponten and E. Saksela (Ponten and Saksela 1967: Two established in vitro cell lines from human mesenchymal tumours, Int. J. Cancer 2: 434-447).
# A suitable medium for the cells is DMEM/F12 (Dulbecco's modified Eagle's Medium), to which 10% fetal calf serum was added for culturing the cells, and 5% fetal calf serum was added for the actual experiment. The latter was previously made steroid-free (DCC medium) using dextran-coated activated carbon (dextran-coated charcoal; DCC). Incubation took place at 37° C. with 5% v/v CO2. In order to ensure comparability between the individual experiments, the passages of the cells used for the experiments never exceeded 20 after thawing from liquid nitrogen.
# Besides native U2OS cells, use was made of U2OS-ERα cells (Schering A G, Berlin) which were stably transfected with ERα (pSG5 vector, Stratagene) and merely required transfection with the reporter gene (ERE)2-tk-Luc (pGL3 basic vector, Promega). […]
# After the cells were treated with the test or control substances for 24 h it was possible to measure the luciferase activity as reporter gene using a kit from Promega, as stated by the manufacturer. The protein content was determined using the BCA® kit (Sigma).
# ERβ = target: T2, ERβ (Homo sapiens, UniProt Q92731); assay: ERβ activation in the osteosarcoma cell line U2OS; assay type: cell-based
# T2 construct: host or cells: U2OS (human osteosarcoma)
# [1] = Accumulation of ERr 731 ingredients in dog plasma, 100/300/1000 mg/kg/day, day 1; assay type: in vivo, dog (beagle); details: male and female dogs, ERr 731 100, 300, 1000 mg/kg/day, day 1
# Method: (§1) These plasma samples were processed as follows: 500 μl of plasma were mixed with 25 μl of an internal standard working solution (2.5 ng/μl rhaponticin or rhapontigenin in methanol) and then mixed with 500 μl of isotonic NaCl solution and 2.5 ml of diethyl ether/butanol (9/1; v/v). After shaking and centrifugation (10 minutes at 4600 rpm), about 2 ml of the supernatant were removed and dried under a stream of nitrogen (at 60° C.). The pellet was taken up in 50 μl of methanol. Addition of 200 μl of distilled water was followed by renewed mixing, and 200 μl were pipetted into autosampler tubes (light-protected). 30 μl of the samples were injected for analysis into an LC-MS/MS system (PE Sciex API 3000). Chromatographic separation of the analytes took place on a Phenomenex Polymer X column with a gradient of an ammonium buffer solution and an acetonitrile/methanol mixture as mobile phase.
# On day 1, 5 ml of blood were taken from the animals after 0, 0.5, 1, 2, 4, 8 and 24 hours in each case, and plasma was obtained. The analysis as described in section a) was carried out thereon in order to detect rhaponticin, deoxyrhaponticin, rhapontigenin, deoxyrhapontigenin, resveratrol and piceatannol in blood. The results of the test are depicted in FIG. 2a.
# [2] = Dissolving tests with ERr 731 in ethanol and glycerol; assay type: physicochemical
# [3] = Pharmacokinetics of ERr 731 ingredients in the blood of a volunteer after oral intake (plasma LC-MS/MS); assay type: in vivo, human; details: for detection in the blood: oral 10 tablets = 40 mg ERr 731, plasma
# Method: Subsequently, 10 ml of blood was taken at various times (as indicated in FIG. 1) and the plasma was obtained by centrifugation.
# as §1
# Solubility statements = assay type: physicochemical
# Text: Use is made of this for its isolation. Since, besides other organic acids, the root in particular has a high content of oxalic acid (⅔ in water-soluble and ⅓ in bound form), this must be neutralized during the isolation in order to prevent the pH drifting into the acidic range and thus to inhibit premature precipitation of the rhaponticin. This is achieved by using calcium oxide. The latter is employed as quicklime solution with a pH of 12.4-12.6.
# Hydroxypropylmethylcellulose (hypromellose USP) or another gel former is allowed to swell with 2-10% by weight in purified water. […] The amount of glycerol may be up to 50% of the weight of the gel. […] If necessary, preservatives (e.g. sorbic acid and its salts) can be added to the gel. Adjustment of the pH is also possible. As alternative to glycerol it is also possible to use 30-86% by volume ethanol.
# [4] = Test A: 200 mg of dry extract in 50 ml of glycerol R
# [5] = Test B: 200 mg of dry extract in 50 ml of ethanol 30% R
# [6] = Test C: 200 mg of dry extract in 50 ml of ethanol 50% R
# [7] = Test D: 200 mg of dry extract in 50 ml of ethanol 86% R
# T2 sequence (Q92731 whole entry): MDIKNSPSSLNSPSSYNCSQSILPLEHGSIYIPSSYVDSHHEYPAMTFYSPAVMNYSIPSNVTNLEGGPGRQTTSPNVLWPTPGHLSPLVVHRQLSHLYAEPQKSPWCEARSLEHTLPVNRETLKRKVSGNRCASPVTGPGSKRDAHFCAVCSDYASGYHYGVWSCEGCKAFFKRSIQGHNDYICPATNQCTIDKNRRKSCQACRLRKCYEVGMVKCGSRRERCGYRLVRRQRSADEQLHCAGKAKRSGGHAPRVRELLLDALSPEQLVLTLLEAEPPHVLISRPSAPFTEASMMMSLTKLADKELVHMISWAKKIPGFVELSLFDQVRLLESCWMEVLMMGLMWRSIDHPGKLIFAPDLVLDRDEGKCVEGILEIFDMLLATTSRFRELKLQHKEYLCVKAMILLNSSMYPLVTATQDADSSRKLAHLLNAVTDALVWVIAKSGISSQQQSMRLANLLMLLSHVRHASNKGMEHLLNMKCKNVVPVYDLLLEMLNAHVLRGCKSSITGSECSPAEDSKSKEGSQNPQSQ
compound,measurement,setting,value
"Oc1cc(O)cc(/C=C/c2ccc(O)c(O)c2)c1 [piceatannol, Piceatannol (astringenin)]",activation of ER-α,ERα,no significant effects; also recorded: no activation
same,activation of ERβ,ERβ,activate relatively specifically only the ERβ
"Oc1ccc(/C=C/c2cc(O)cc(O)c2)cc1 [resveratrol, Resveratrol]",activation of ER-α,ERα,no significant effects; also recorded: no activation
"COc1ccc(/C=C/c2cc(O)cc(O[C@@H]3O[C@H](CO)[C@@H](O)[C@H](O)[C@H]3O)c2)cc1 [deoxyrhaponticin, 3,5′-Dihydroxy-4′-methoxystilbene 3-O-β-D-glucopyranoside]",detection / accumulation (AUC 0-24 h) in dog plasma,[1],dose-dependent accumulation
same,content found in solution,[2]; [4],27.1% deoxyrhaponticin
same,"dissolved, of theory",[2]; [4],(90.6% of theory)
same,content found in solution,[2]; [5],25.2% deoxyrhaponticin
same,"dissolved, of theory",[2]; [5],(84.2% of theory)
same,content found in solution,[2]; [6],29.0% deoxyrhaponticin
same,"dissolved, of theory",[2]; [6],(97.0% of theory)
same,content found in solution,[2]; [7],29.5% deoxyrhaponticin
same,"dissolved, of theory",[2]; [7],(98.7% of theory)
"COc1ccc(/C=C/c2cc(O)cc(O)c2)cc1O [rhapontigenin, 3,3′,5-Trihydroxy-4′-methoxystilbene]",detection / accumulation (AUC 0-24 h) in dog plasma,[1],undetectable
same,detection in the blood,[3],could not be found and not
"COc1ccc(C=Cc2cc(O)cc(O[C@@H]3O[C@H](CO)[C@@H](O)[C@H](O)[C@H]3O)c2)cc1O [rhaponticin, 3,3′,5-Trihydroxy-4′-methoxystilbene 3-O-β-D-glucopyranoside]",detection / accumulation (AUC 0-24 h) in dog plasma,[1],dose-dependent accumulation
same,solubility in aqueous solutions with an alkaline pH range,Solubility statements; alkaline pH,readily soluble
same,behaviour in the acidic pH range,Solubility statements; pH 3.4-3.6,precipitated
same,content found in solution,[2]; [4],55.1% rhaponticin
same,"dissolved, of theory",[2]; [4],(89.0% of theory)
same,content found in solution,[2]; [5],52.2% rhaponticin
same,"dissolved, of theory",[2]; [5],(84.3% of theory)
same,content found in solution,[2]; [6],58.8% rhaponticin
same,"dissolved, of theory",[2]; [6],(95.0% of theory)
same,content found in solution,[2]; [7],59.8% rhaponticin
same,"dissolved, of theory",[2]; [7],(96.6% of theory)
same,time of maximum in the blood,[3]; oral 40 mg ERr 731,3 to 4 h
same,detection in the blood,[3],detected; also recorded: detectable
